Results from US20100190716A1, “USE OF A PLATELET FIBRINOGEN RECEPTOR HEXAPEPTIDE ANTAGONIST AND ALPHA-ENDORPHIN AS THERAPEUTIC AGENTS” (priority 2007, published 2010).
Where no end group is shown, it is not given here. [ ]: non-standard residue; d: D form. Hyp = O=C(O)[C@@H]1C[C@@H](O)CN1

Assays:
HCMV strain AD169 = assay: HCMV plaque formation assay in MRC-5 cells; conditions: for inhibition of HCMV plaque formation compared to virus control: 10 micrograms per ml, 7-10 days
[1] = test system: Human Peripheral Blood Mononuclear Cells (PBMC), B cell proliferation; assay: B cell proliferation assay (SAC plus Interleukin-2 stimulated PBMC, 3H-thymidine); assay type: cell-based; conditions: 10 micrograms per ml; SAC plus IL-2 stimulated PBMC
Experimental: Human Peripheral Blood Mononuclear Cells (PBMC) were obtained from normal human donors. The B cell proliferation was induced by stimulation of the cells with the B cell mitogen Staphylococcus aureus Cowans I (SAC) plus Interleukin-2, either in the absence (positive proliferation control), or in the presence of test peptides—10 micrograms per ml—to examine their effects on the B cell response. 10^5/well PBMC were plated in 96-well microtiter plates and assayed in duplicate with the peptides. Cell cultures were incubated at 37° C. for 3 days in a 5% CO2 incubator and were thereafter pulsed with 1 microCi/well ^3H-thymidine for additional 12 hours of culture. At the end of incubation time, the plates were harvested and the cells counted by liquid scintillation for the incorporation of ^3H-thymidine as a measure of B cell proliferation.

HUVEC = assay: Endothelial tube formation assay; assay type: cell-based, human; conditions: 10 micrograms per ml, 20 hours
Experimental: The endothelial tube formation assay is based on the ability of endothelial cells to form three-dimensional capillary-like tubular structures when cultured on a gel of basement membrane extract. The endothelial tube formation assay represents a powerful model for studying inhibition and induction of angiogenesis. Pre-labeled HUVEC with Calcein AM were seeded in a 96-well culture plate coated with extracellular metrix (Chemicon international Cat. ECM625) and treated with test peptides—10 micrograms per ml—in full growth medium. Positive control was vehicle only. The endothelial cells were allowed to form tubes foe 20 hours and were then examined under an inverted fluorescent microscope. Duplicate wells for each treatment were photographed and quantitatively analyzed for an average tubule length using image analysis software ImageProPlus. Raw data were expressed as average tubule lengths in pixels ±standard deviation. Statistic p values were computed using the Student's t-test.

[2] = test system: hepatitis B virus (HBV) ayw strain; assay: HBV experimental assay system, secreted HBV DNA by TaqMan PCR in HepG2-2.2.15; assay type: cell-based; conditions: 10 micrograms per ml, HepG2-2.2.15, 6 days
Interleukin-4 (IL-4) = assay: Th1/Th2 cytokine profiling assay, IL-4; assay type: cell-based, mouse; conditions: 10 micrograms per ml; Ovalbumin-restimulated Balb/c spleen cells, 72 hours
Excerpt: (§1) The Balb/c mice (originated in 1923, it is a popular strain and is used in many different research disciplines. Also classified as an inbred from the production of 20 or more successive brother-sister matings, the Balb/c mouse is albino and small in size) were immunized on Days 1, 15, and 29 with Ovalbumin (Ovalbumin is the main protein found in egg white, commonly used to stimulate an immunological reaction in test animals) in PBS (5 micrograms/injection). On day 50, spleens of the mice were harvested (3 weeks after last boost with Ovalbumin). […] Thereafter, additional Ovalbumin was added to the cells at 10 micrograms/ml for in vitro restimulation of the cells. 72 hours later, cell supernatants were harvested and assayed using the Becton Dickinson Mouse Th1/Th2 Cytokine CBA Kit. This kit can be used to measure Interleukin-2 (IL-2), Interleukin-4 (IL-4), Interleukin-5 (IL-5), Interferon-γ (IFN-γ), and Tumor Necrosis Factor-α (TNF-α) protein levels in a single sample. The kit performance has been optimized for analysis of physiologically relevant concentrations ([…] levels) of specific cytokine proteins in tissue culture supernatants and serum samples.

[3] = test system: Primary Human endothelial cells (HUVEC); assay: Endothelial cell migration assay; assay type: cell-based; conditions: 10 micrograms per ml, 22 hours
Experimental: Endothelial cell migration is a prerequisite for the process of neo-vascularization or angiogenesis which is crucial for on-site recruitment of blood vessel formation. Primary Human endothelial cells (HUVEC) were seeded in insert chambers with 3 micrometer pore size of multi-transwell plate for 6 hours at 37° C. in Endothelial Cell Basal Medium (EBM) supplemented with 0.1% bovine serum albumin. Thereafter, designated concentration of testing peptides—10 micrograms per ml—was added in duplicate wells. The endothelia were allowed to migrate for 22 hours at 37° C., then, migrated cells were fixed and stained with Hoechst 33342 dye. Images of 3 fields per insert were taken and the number of migrated cells per field were quantified using the ImageProPlus software. Data were analyzed for the average number of the migrated cells and standard deviation of six data points for each treatment condition. Active test peptides against HUVEC migration was determined based on 50% inhibition of migrated cells as compared with the control. Statistic p values were computed using the Student's t-test.

Interleukin-5 (IL-5) = assay: Th1/Th2 cytokine profiling assay, IL-5; assay type: cell-based, mouse; conditions: 10 micrograms per ml; Ovalbumin-restimulated Balb/c spleen cells, 72 hours
Excerpt: as §1

Interferon-γ (IFN-γ) = assay: Th1/Th2 cytokine profiling assay, IFN-γ; assay type: cell-based, mouse; conditions: 10 micrograms per ml; Ovalbumin-restimulated Balb/c spleen cells, 72 hours
Excerpt: as §1

Interleukin-2 (IL-2) = assay: Th1/Th2 cytokine profiling assay, IL-2; assay type: cell-based, mouse; conditions: 10 micrograms per ml; Ovalbumin-restimulated Balb/c spleen cells, 72 hours
Excerpt: as §1

[4] = test system: Tumor Necrosis Factor-α (TNF-α); assay: Th1/Th2 cytokine profiling assay, TNF-α; assay type: cell-based, mouse; conditions: 10 micrograms per ml; Ovalbumin-restimulated Balb/c spleen cells, 72 hours
Excerpt: as §1

HIV-1IIIB = assay: HIV-1 antiviral assay in CEM-SS cells (MTS readout); conditions: positive controls

Row | Molecule | inhibition of HCMV plaque formation compared to virus control (HCMV strain AD169) | decrease of the proliferation of specifically stimulated human B-cells [1] [%] | inhibition of the tube formation of human endothelial cells (HUVEC) | inhibition of HBV replication on tested liver cells [2] | IL-4 spleen cells; TH2 response (% of control) (Interleukin-4 (IL-4)) | inhibition of the migration of human endothelial cells [3] [%] | IL-5 spleen cells; TH2 response (% of control) (Interleukin-5 (IL-5)) | IFNγ spleen cells; TH1 response (% of control) (Interferon-γ (IFN-γ)) | IL-2 spleen cells (% of control) (Interleukin-2 (IL-2)) | TNF-a spleen cells; TH1 response (% of control) [4] | antiviral activity of positive control compound (HCMV strain AD169; positive control, HCMV AD169) | antiviral activity of positive control compounds (HIV-1IIIB)
1 | Tyr-Gly-Gly-Phe-Met-Thr-Ser-Glu-Lys-Ser-Gln-Thr-Pro-Leu-Val-Thr-OH (YGGFMTSEKSQTPLVT-OH) [peptide 2, Alpha-Endorphin] | did not inhibit | 12.0 | did not inhibit | no effect | 0.0 % of control | 31 | 53.0 % of control | 68.6 % of control | 0.0 % of control | 93.1 % of control |  | 
2 | PS[Hyp]GDW-OH [peptide 1] | did not inhibit | 20.9 | did not inhibit | no effect | 0.0 % of control | 39 | 65.5 % of control | 63.7 % of control | 117.9 % of control | 96.0 % of control |  | 
3 | Nc1nc(O)c2ncn(COC(CO)CO)c2n1 [Ganciclovir, reference compound] |  |  |  |  |  |  |  |  |  |  | expected levels of antiviral activity | 
4 | CC(C)(C)NC(=O)[C@@H]1CN(Cc2cccnc2)CCN1C[C@@H](O)C[C@@H](Cc1ccccc1)C(=O)N[C@H]1c2ccccc2C[C@H]1O [indinavir] |  |  |  |  |  |  |  |  |  |  |  | expected levels of antiviral activity
5 | Cc1cn([C@H]2C[C@H](N=[N+]=[N-])[C@@H](CO)O2)c(=O)[nH]c1=O [AZT] |  |  |  |  |  |  |  |  |  |  |  | expected levels of antiviral activity
